System: 186277-243-T-J2-PDC multi-cell spheroid viability
Assay: Anticancer human tumor 186277-243-T-J2-PDC patient-derived colon adenocarcinoma cell line growth inhibition [PI3K]
Conditions: for IC50: curve of first compound; for viability, T/C: stronger effect = lower value; active = viability on the fitted dose curve at most 10% of control; inactive = the rest
Text: Combinatorial screen of targeted agents with the PI3K inhibitors inavolisib, alpelisib, duvelisib, and copanlisib in multi-cell type tumor spheroids
A high-throughput screen of multi-cell type tumor spheroids was designed to identify active combinations of targeted small molecules and PI3K pathway inhibitors. Complex spheroids include a stromal component modeled by human endothelial cells (HUVEC) and fibroblasts modeled by human mesenchymal stem cells (MSCs). The concentration ranges selected for each drug and investigational agent were based upon clinically achievable concentrations if the clinical Cmax of the agent was known.
Compounds. The drugs and investigational agents: inavolisib (NSC800729), alpelisib (NSC765974), duvelisib (NSC772469), copanlisib (NSC816437), ipatasertib (NSC767898), afuresertib (NSC778305), talazoparib (NSC767125), sapanisertib (NSC764658), selumetinib (NSC741078), tovorafenib (DAY101, NSC766906), vemurafenib (NSC761431), ravoxertinib (NSC781343), sotorasib (NSC818433), MRTX1133 (NSC 836407), abemaciclib (NSC 768073), palbociclib (NSC758247), venetoclax (NSC 766270), SY5609 (NSC837396), enzalutamide (NSC755605), and darolutamide (NSC825331), were obtained from the National Cancer Institute (NCI) Developmental Therapeutics Program Chemical Repository. The FDA-approved anticancer drug set is available from the NCI Developmental Therapeutics Program. […] The stock solutions were prepared in dimethyl sulfoxide (DMSO, Sigma-Aldrich, St. Louis, MO, cat. D2650) at 800-fold the tested concentration and stored at -70 degrees C prior to their use. All drugs and investigational agents were tested over a range starting from a high concentration at or near the clinical Cmax and decreasing in half-log increments. If the clinical Cmax for an agent had not been determined, the highest concentration tested was 10 microM.
Cell Culture. All cells were maintained in an incubator at 37 degrees C and 5% CO2 with 95% humidity. The PDC lines were cultured according to standard operating procedures established by the NCI PDMR (https://pdmr.cancer.gov/sops/default.htm). All PDCs were thawed and cultured in Matrigel-coated flasks prepared with a working solution of 1X Ham's F-12 nutrient mix, without supplementation (Invitrogen, Waltham, MA, cat. 11765054), 100 U/mL penicillin-streptomycin (Invitrogen, cat. 15140122), and 2.5% Matrigel (Corning Inc., Corning, NY, cat. 354248) for the first three passages. The 354836-022-R-J1-PDC, 475296-252-R-J1-PDC, and 997726-040-R-J2-PDC lines were cultured in 6A media, which includes advanced DMEM/F-12 (Thermo Fisher Scientific, cat. 12634028), 10 mM HEPES (Thermo Fisher Scientific, cat. 15630080), 1X GlutaMAX supplement (Thermo Fisher Scientific, cat. 35050061), 0.1 mg/mL primocin (InvivoGen, San Diego, CA, cat. ant-pm-2), 10% defined fetal bovine serum, heat inactivated (HyClone Laboratories Inc., Logan, UT, cat. SH30070.03HI), 50% L-WRN conditioned media (ATCC, cat. CRL-3276), 1.25 mM N-Acetyl-L-cysteine (Sigma-Aldrich, cat. A9165), 10 mM nicotinamide (Sigma-Aldrich, cat. N0636), 1X B-27 supplement (Thermo Fisher Scientific, cat. 17504044), 1X N-2 supplement (Thermo Fisher Scientific, cat. 17502048), and 10 microM Y-27632 dihydrochloride (Tocris Bioscience, Bristol, United Kingdom, cat. 1254). The 624824-186-R-J2-PDC line was cultured in 6C/Colon 1B media, which includes all 6A media components plus 50 ng/mL human EGF recombinant protein (Thermo Fisher Scientific, cat. PHG0311). […]
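Note: spheroids exposed to compounds for seven days before viability reading.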

CC(C)NCC(C(=O)N1CCN(c2ncnc3c2C(C)CC3O)CC1)c1ccc(Cl)cc1 (configuration not stated) + CC(Nc1ccc2c(c1)OCCn1cc(N3C(=O)OCC3C(F)F)nc1-2)C(N)=O
774 nM: IC50 (second compound 0.01 µM)
< 31.6 nM: IC50 (second compound 1 µM)
648 nM: IC50 (second compound 0.0316 µM)
134 nM: IC50 (second compound 0.316 µM)
355 nM: IC50 (second compound 0.1 µM)
active: viability, T/C (second compound 0.316 µM, first compound 10 µM) 8.85% | viability, T/C (second compound 1 µM, first compound 10 µM) 6.4%
inactive: viability, T/C (second compound 0.00316 µM, first compound 0.0316 µM) 92.9% | viability, T/C (second compound 0.00316 µM, first compound 0.1 µM) 77.1% | viability, T/C (second compound 0.00316 µM, first compound 0.316 µM) 64.1% | viability, T/C (second compound 0.00316 µM, first compound 1 µM) 52% | viability, T/C (second compound 0.00316 µM, first compound 3.16 µM) 39.6% | viability, T/C (second compound 0.00316 µM, first compound 10 µM) 21.4% | viability, T/C (second compound 0.01 µM, first compound 0.0316 µM) 95.3% | viability, T/C (second compound 0.01 µM, first compound 0.1 µM) 87.2% | viability, T/C (second compound 0.01 µM, first compound 0.316 µM) 62.2% | viability, T/C (second compound 0.01 µM, first compound 1 µM) 47% | viability, T/C (second compound 0.01 µM, first compound 3.16 µM) 29.8% | viability, T/C (second compound 0.01 µM, first compound 10 µM) 18.9% | viability, T/C (second compound 0.0316 µM, first compound 0.0316 µM) 104% | viability, T/C (second compound 0.0316 µM, first compound 0.1 µM) 97% | viability, T/C (second compound 0.0316 µM, first compound 0.316 µM) 71.4% | viability, T/C (second compound 0.0316 µM, first compound 1 µM) 37.1% | viability, T/C (second compound 0.0316 µM, first compound 3.16 µM) 19% | viability, T/C (second compound 0.0316 µM, first compound 10 µM) 15% | viability, T/C (second compound 0.1 µM, first compound 0.0316 µM) 100% | viability, T/C (second compound 0.1 µM, first compound 0.1 µM) 86.2% | viability, T/C (second compound 0.1 µM, first compound 0.316 µM) 51% | viability, T/C (second compound 0.1 µM, first compound 1 µM) 27.8% | viability, T/C (second compound 0.1 µM, first compound 3.16 µM) 17.1% | viability, T/C (second compound 0.1 µM, first compound 10 µM) 12.9% | viability, T/C (second compound 0.316 µM, first compound 0.0316 µM) 75.9% | viability, T/C (second compound 0.316 µM, first compound 0.1 µM) 53.6% | viability, T/C (second compound 0.316 µM, first compound 0.316 µM) 37.6% | viability, T/C (second compound 0.316 µM, first compound 1 µM) 24% | viability, T/C (second compound 0.316 µM, first compound 3.16 µM) 11.8% | viability, T/C (second compound 1 µM, first compound 0.0316 µM) 40.1% | viability, T/C (second compound 1 µM, first compound 0.1 µM) 33.3% | viability, T/C (second compound 1 µM, first compound 0.316 µM) 24.5% | viability, T/C (second compound 1 µM, first compound 1 µM) 19.4% | viability, T/C (second compound 1 µM, first compound 3.16 µM) 17.1%
1120 nM: IC50 (second compound 0.00316 µM)

Reference: PubChem BioAssay AID1963983 (Molecular Pharmacology Branch, DTP, NCI, 2024)
